Experimental data: the supplement of paper PMC10307832

Legend:
Assay in all cases: relative viability (nuclei count vs DMSO), 5 days (fraction); higher = more cells survive
CAL-12T = system: CAL-12T
Summary of the method: (§1)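 Relative viability divides the nuclei count in treated wells by that in vehicle wells. Lung cancer cell lines were seeded in 1536-well plates, dosed by pin tool the next day, and fixed and stained after 5 days in one step with final 0.05% Triton X-100, 1% formaldehyde and 1 ug/ml Hoechst. Dosing was a single drug or a fixed anchor-drug dose plus five library-drug doses (not always all listed) in √10 steps, and values are medians of duplicate plates imaged at 4×.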

PC-3 [JPC-3] = system: PC-3 [JPC-3]
Summary of the method: as §1

NCI-H441 = system: NCI-H441
Summary of the method: as §1

COR-L23 = system: COR-L23
Summary of the method: as §1

UMC-11 = system: UMC-11
Summary of the method: as §1

NCI-H1755 = system: NCI-H1755
Summary of the method: as §1

NCI-H1734 = system: NCI-H1734
Summary of the method: as §1

EMC-BAC-2 = system: EMC-BAC-2
Summary of the method: as §1

NCI-H1437 = system: NCI-H1437
Summary of the method: as §1

NCI-H3122 = system: NCI-H3122
Summary of the method: as §1

LK-2 = system: LK-2
Summary of the method: as §1

NCI-H1651 = system: NCI-H1651
Summary of the method: as §1

NCI-H2347 = system: NCI-H2347
Summary of the method: as §1

ABC-1 = system: ABC-1
Summary of the method: as §1

HOP-62 = system: HOP-62
Summary of the method: as §1

RERF-LC-KJ = system: RERF-LC-KJ
Summary of the method: as §1

HARA = system: HARA
Summary of the method: as §1

NCI-H727 = system: NCI-H727
Summary of the method: as §1

SK-LU-1 = system: SK-LU-1
Summary of the method: as §1

NCI-H1650 = system: NCI-H1650
Summary of the method: as §1

HCC-366 = system: HCC-366
Summary of the method: as §1

`Cc1cn(-c2cc(NC(=O)c3ccc(C)c(Nc4nccc(-c5cccnc5)n4)c3)cc(C(F)(F)F)c2)cn1` [Nilotinib] + CC(=O)c1c(C)c2cnc(Nc3ccc(N4CCNCC4)cn3)nc2n(C2CCCC2)c1=O [Palbociclib] (partner 0.5 µM) showed a relative viability (CAL-12T; first compound 0.001 µM) of 0.593, a relative viability (CAL-12T; first compound 0.003162 µM) of 0.438 and a relative viability (CAL-12T; first compound 0.01 µM) of 0.473. For the same compound, the relative viability (CAL-12T; first compound 0.03162 µM) was 0.357, the relative viability (CAL-12T; first compound 0.1 µM) was 0.299 and the relative viability (PC-3 [JPC-3]; first compound 0.001 µM) was 0.526. The relative viability (PC-3 [JPC-3]; first compound 0.01 µM) was 0.542, the relative viability (PC-3 [JPC-3]; first compound 0.03162 µM) was 0.566 and the relative viability (PC-3 [JPC-3]; first compound 0.1 µM) was 0.518. It also gave a relative viability (NCI-H441; first compound 0.001 µM) of 0.204, a relative viability (NCI-H441; first compound 0.003162 µM) of 0.209 and a relative viability (NCI-H441; first compound 0.01 µM) of 0.197. The relative viability (NCI-H441; first compound 0.03162 µM) was 0.201, the relative viability (NCI-H441; first compound 0.1 µM) was 0.192 and the relative viability (COR-L23; first compound 0.001 µM) was 0.288. The relative viability (COR-L23; first compound 0.003162 µM) was 0.301, the relative viability (COR-L23; first compound 0.01 µM) was 0.317 and the relative viability (COR-L23; first compound 0.03162 µM) was 0.268. For the same compound, the relative viability (COR-L23; first compound 0.1 µM) was 0.223, the relative viability (UMC-11; first compound 0.001 µM) was 0.299 and the relative viability (UMC-11; first compound 0.003162 µM) was 0.296. It also gave a relative viability (UMC-11; first compound 0.01 µM) of 0.299, a relative viability (UMC-11; first compound 0.03162 µM) of 0.374 and a relative viability (UMC-11; first compound 0.1 µM) of 0.313. It also gave a relative viability (NCI-H1755; first compound 0.001 µM) of 0.451, a relative viability (NCI-H1755; first compound 0.003162 µM) of 0.453 and a relative viability (NCI-H1755; first compound 0.01 µM) of 0.436. It also gave a relative viability (NCI-H1755; first compound 0.03162 µM) of 0.468, a relative viability (NCI-H1755; first compound 0.1 µM) of 0.368 and a relative viability (NCI-H1734; first compound 0.001 µM) of 0.333. The relative viability (NCI-H1734; first compound 0.003162 µM) was 0.36, the relative viability (NCI-H1734; first compound 0.01 µM) was 0.372 and the relative viability (NCI-H1734; first compound 0.03162 µM) was 0.312. For the same compound, the relative viability (NCI-H1734; first compound 0.1 µM) was 0.317, the relative viability (EMC-BAC-2; first compound 0.001 µM) was 0.477 and the relative viability (EMC-BAC-2; first compound 0.003162 µM) was 0.47. For the same compound, the relative viability (EMC-BAC-2; first compound 0.01 µM) was 0.481, the relative viability (EMC-BAC-2; first compound 0.03162 µM) was 0.487 and the relative viability (EMC-BAC-2; first compound 0.1 µM) was 0.526. The relative viability (NCI-H1437; first compound 0.001 µM) was 0.28, the relative viability (NCI-H1437; first compound 0.003162 µM) was 0.304 and the relative viability (NCI-H1437; first compound 0.01 µM) was 0.308. The relative viability (NCI-H1437; first compound 0.03162 µM) was 0.276, the relative viability (NCI-H1437; first compound 0.1 µM) was 0.32 and the relative viability (NCI-H3122; first compound 0.001 µM) was 0.0877. The relative viability (NCI-H3122; first compound 0.003162 µM) was 0.191, the relative viability (NCI-H3122; first compound 0.01 µM) was 0.243 and the relative viability (NCI-H3122; first compound 0.03162 µM) was 0.198. It also gave a relative viability (NCI-H3122; first compound 0.1 µM) of 0.175, a relative viability (LK-2; first compound 0.001 µM) of 0.751 and a relative viability (LK-2; first compound 0.003162 µM) of 0.475. The relative viability (LK-2; first compound 0.01 µM) was 0.788, the relative viability (LK-2; first compound 0.03162 µM) was 0.698 and the relative viability (LK-2; first compound 0.1 µM) was 0.992. It also gave a relative viability (NCI-H1651; first compound 0.001 µM) of 0.555, a relative viability (NCI-H1651; first compound 0.003162 µM) of 0.601 and a relative viability (NCI-H1651; first compound 0.01 µM) of 0.616. The relative viability (NCI-H1651; first compound 0.03162 µM) was 0.448, the relative viability (NCI-H1651; first compound 0.1 µM) was 0.562 and the relative viability (NCI-H2347; first compound 0.001 µM) was 0.452. It also gave a relative viability (NCI-H2347; first compound 0.003162 µM) of 0.419, a relative viability (NCI-H2347; first compound 0.01 µM) of 0.474 and a relative viability (NCI-H2347; first compound 0.03162 µM) of 0.43. The relative viability (NCI-H2347; first compound 0.1 µM) was 0.396, the relative viability (ABC-1; first compound 0.001 µM) was 0.634 and the relative viability (ABC-1; first compound 0.003162 µM) was 0.697. For the same compound, the relative viability (ABC-1; first compound 0.01 µM) was 0.775, the relative viability (ABC-1; first compound 0.03162 µM) was 0.699 and the relative viability (ABC-1; first compound 0.1 µM) was 0.466. It also gave a relative viability (HOP-62; first compound 0.003162 µM) of 0.425, a relative viability (HOP-62; first compound 0.01 µM) of 0.439 and a relative viability (RERF-LC-KJ; first compound 0.001 µM) of 0.965. It also gave a relative viability (RERF-LC-KJ; first compound 0.003162 µM) of 1.11, a relative viability (RERF-LC-KJ; first compound 0.01 µM) of 1.21 and a relative viability (RERF-LC-KJ; first compound 0.03162 µM) of 0.896. For the same compound, the relative viability (RERF-LC-KJ; first compound 0.1 µM) was 1.03, the relative viability (HARA; first compound 0.001 µM) was 0.287 and the relative viability (HARA; first compound 0.003162 µM) was 0.219. The relative viability (HARA; first compound 0.01 µM) was 0.246, the relative viability (HARA; first compound 0.03162 µM) was 0.251 and the relative viability (HARA; first compound 0.1 µM) was 0.225. It also gave a relative viability (NCI-H727; first compound 0.001 µM) of 0.667, a relative viability (NCI-H727; first compound 0.003162 µM) of 0.69 and a relative viability (NCI-H727; first compound 0.01 µM) of 0.71. The relative viability (NCI-H727; first compound 0.03162 µM) was 0.593, the relative viability (NCI-H727; first compound 0.1 µM) was 0.633 and the relative viability (SK-LU-1; first compound 0.001 µM) was 0.355. For the same compound, the relative viability (SK-LU-1; first compound 0.003162 µM) was 0.334, the relative viability (SK-LU-1; first compound 0.01 µM) was 0.405 and the relative viability (SK-LU-1; first compound 0.03162 µM) was 0.311. It also gave a relative viability (SK-LU-1; first compound 0.1 µM) of 0.335, a relative viability (NCI-H1650; first compound 0.001 µM) of 0.329 and a relative viability (NCI-H1650; first compound 0.003162 µM) of 0.402. For the same compound, the relative viability (NCI-H1650; first compound 0.01 µM) was 0.324, the relative viability (NCI-H1650; first compound 0.03162 µM) was 0.309 and the relative viability (NCI-H1650; first compound 0.1 µM) was 0.298. The relative viability (HCC-366; first compound 0.001 µM) was 0.244, the relative viability (HCC-366; first compound 0.003162 µM) was 0.379 and the relative viability (HCC-366; first compound 0.01 µM) was 0.396. It also gave a relative viability (HCC-366; first compound 0.03162 µM) of 0.36 and a relative viability (HCC-366; first compound 0.1 µM) of 0.303.
